Experimental findings from patent publication US6350759B1, “Dihydro- and tetrahydro-quinoline compounds” (Adir et Compagnie, priority 1998, dated 2002) are described below.

The first data set relates to Wistar rat. Kind of data set: Delayed hippocampal neurodegeneracy induced by kainic acid in the Wistar rat. Format: in vivo. To be noted: 150 mg/kg i.p. 30 minutes before kainic acid 12 mg/kg s.c.; count 7 days later. The method, then: This method is frequently used as a model of temporal epilepsy in humans (Ben-Ari, Neurosci., 14, 375-403, 1985).
Male Wistar rats (180-220 g, CERJ) are given kainic acid (12 mg/kg) by the subcutaneous route. The animals are sacrificed by decapitation 7 days later. The brains are removed and then cut, in the frozen state, into frontal sections of 7 μm, which are stained (hematoxylin-eosin). Hippocampal neurone death is assessed by a neurone count at the level of the CA3 layer of the hippocampus. The results are expressed as a percentage of viable neurones in the CA3 layer compared with the total neurone population.
Regarding `CCOc1ccc2c(c1)C=CC1(CCCCC1)N2.Cl` [Example 1, 6-Ethoxy-1,2-dihydroquinoline-2-spirocyclohexane hydrochloride], the “reduction in neurone death (CA3 layer), factor” value is on record as 3.

A further data set concerns C57BL/6 mouse. Kind of data set: Antagonism of dopaminergic striatonigral dysfunctions induced by methamphetamine in the C57BL/6 mouse. To be noted: dose 2×150 mg/kg i.p. Format: in vivo. The method, then: Male mice (C57BL/6 20-25 g) are given four injections of d-methamphetamine (5 mg/kg base, i.p.) at intervals of 2 hours (Sonsalla and Heikkila, Prog. Neuro-Psychopharmacolo. & Biol. Psychiat., 12, 345-354, 1988) and the anti-oxidant being tested is administered (i.p.) 30 minutes before the first and third injections of d-methamphetamine (Yamamoto and Zhu, J. Pharmacol. Exp. Ther. 287, 107-114, 1988). The rectal temperature is monitored throughout the duration of the experiment. The animals are sacrificed by decapitation 72 hours after the last injection of d-methamphetamine. The brains are rapidly extracted, and the striata are removed, frozen in liquid nitrogen and weighed. The striata are homogenised by sonication in 20 volumes of 0.1N HClO4, and the homogenate is centrifuged at 15000 g for 20 minutes at 4° C. The supernatants are collected for assaying the striata tissue levels of dopamine by means of HPLC coupled with coulometric detection (Bonhomme et al., Brain Res., 675, 215-233, 1995). The results are expressed as μg of dopamine/g of tissue. […] That is true especially of the compound of Example 1 administered in a dose of 2×150 mg/kg i.p.
As to `CCOc1ccc2c(c1)C=CC1(CCCCC1)N2.Cl` [Example 1, 6-Ethoxy-1,2-dihydroquinoline-2-spirocyclohexane hydrochloride], the “effect on dopaminergic deficit induced by methamphetamine (striatal dopamine)” value is on record as “oppose the dopaminergic deficit”.

Test system in a further data set: not given
Test: not given
Conditions: not given
Take `CC(C)(C)Oc1ccc2c(c1)C=CC1(CCCCC1)N2.Cl`: the melting point – broadly, the temperature, or range, at which the solid turns liquid – came out at 132 °C. The compound `COc1ccc2c(c1)C=CC1(CCCCC1)N2.Cl` returned a melting point of 191 °C. In turn, `C1=CC2(CCCCC2)Nc2ccc(Oc3ccccc3)cc21.Cl` came in with a melting point of 176 °C. In the case of `CCOc1c(C)c(C)c2c(c1C)C=CC1(CCCCC1)N2.Cl`, the melting point is 158 to 161 °C. Compound `CC(C)(C)C(=O)Oc1ccc2c(c1)C=CC1(CCCCC1)N2.Cl` registered a melting point of 180 °C. The same measure, in the same setting: in the case of `CCOc1cccc2c1NC1(C=C2)CCCCC1.Cl` it was 154 to 155 °C; in that of `CCOc1c(C(C)C)cc2c(c1C(C)C)C=CC1(CCCCC1)N2.Cl`, 166 to 169 °C (dec.). Same read-out and setting: the value for `CCOc1c(C)cc2c(c1C)C=CC1(CCCCC1)N2.Cl` was 175 to 180 °C; that for `CCOc1c(C(C)C)cc2c(c1C(C)C)CCC(C)(C)N2.Cl` was 227 to 230 °C. As for `CCOc1c(C)c(C)c2c(c1C)CCC1(CCCCC1)N2.Cl`, the melting point is 192 to 198 °C (dec.).

For a further data set, the system named is Wistar rat. Kind of data set: Neuroprotection in transient and global cerebral ischaemia in the Wistar rat. To be noted: administration 30 minutes before the start of the ischaemia; count 7 days after. It counts as in vivo. The method, then: This animal model (Pulsinelli and Brierley, Stroke 10, 267-272, 1979), is commonly used for the detection of central anti-ischaemic agents (Buchan et al., Neurosci. Lett., 132(2), 255-258, 1991).
Under pentobarbital anaesthesia, the vertebral arteries of male Wistar rats (280-320 g, Charles River) are permanently occluded by electrocoagulation and carotid ligatures are placed around each common carotid. 24 hours later, ischaemia is brought about for […] by clamping the carotids with the carotid ligatures. This ischaemic episode causes delayed neurone death at the level of the pyramidal cells of the hippocampus. Neurone death is measured by a neurone count on sections of brain (7 μm, staining: hematoxylin-eosin) of rats sacrificed 7 days after the ischaemic episode. The results are expressed as a percentage of viable hippocampal neurones compared with the total hippocampal neurone population. […] That is true especially of the compound of Example 1, which, on administration 30 minutes before the start of the ischaemia, induces a reduction by a factor of 2.7.
As for `CCOc1ccc2c(c1)C=CC1(CCCCC1)N2.Cl` [Example 1, 6-Ethoxy-1,2-dihydroquinoline-2-spirocyclohexane hydrochloride], the “reduction of hippocampal neurone death, factor” value came out at 2.7.
